Numbered stars: 1 amine (or outer) side, 2 acyl side, 3 side chain; on linkers, the order of the positions; unused ones are H or OH. Square brackets hold non-standard residues; d marks the D form. Peptide text beside a SMILES is read from it. * marks the point of attachment. X2 = CON(C)C(=O)OCCCC[C@@H](C)[C@@H](O)[C@@H](C(=O)[*:2])N(C)[*:1]; X10 = C[C@H](CCOC(=O)NC1CC1)[C@@H](O)[C@@H](C(=O)[*:2])N(C)[*:1]; X5 = C[C@H](CCCCOC(=O)N(C)C)[C@@H](O)[C@@H](C(=O)[*:2])N(C)[*:1]; X9 = C[C@H](CCCCN=[N+]=[N-])[C@@H](O)[C@@H](C(=O)[*:2])N(C)[*:1]; X7 = CCOC(=O)NCCCC[C@@H](C)[C@@H](O)[C@@H](C(=O)[*:2])N(C)[*:1]; X8 = CCOC(=O)OCCCC[C@@H](C)[C@@H](O)[C@@H](C(=O)[*:2])N(C)[*:1]; X1 = COC(=O)NCCCC[C@@H](C)[C@@H](O)[C@@H](C(=O)[*:2])N(C)[*:1]; X4 = COC(=O)OCCCC[C@@H](C)[C@@H](O)[C@@H](C(=O)[*:2])N(C)[*:1]; X3 = CC(=O)NCCCC[C@@H](C)[C@@H](O)[C@@H](C(=O)[*:2])N(C)[*:1]; NMe(dihydroBmt) = CCCC[C@@H](C)[C@@H](O)[C@H](NC)C(=O)O; X6 = C[C@H](CCCCN)[C@@H](O)[C@@H](C(=O)[*:2])N(C)[*:1]; Butyl(4-morpholino) = C(CC*)CN1CCOCC1; NMeT = CN[C@H](C(=O)O)[C@@H](C)O; NMeL = CN[C@@H](CC(C)C)C(=O)O; NMeV = CN[C@H](C(=O)O)C(C)C; dNMeA = CN[C@H](C)C(=O)O; Abu = CC[C@H](N)C(=O)O
These molecules were tested on HCV 1a genotype replicon (assay: microbe, parasite or virus in culture). Details: Hepatitis C virus; HCV genotype 1a replicon, luciferase assay, 72 hours; read-out: EC50 (Ia) Genotype-1a Replicon EC50.
Type: cell-based

How did the EC50 turn out when `CC[C@@H]1NC(=O)[C@H]([C@H](O)[C@H](C)CCCCNC(C)=O)N(C)C(=O)[C@H](C(C)C)N(C)C(=O)[C@H](CC(C)C)N(C)C(=O)[C@H](CC(C)C)N(C)C(=O)[C@@H](C)NC(=O)[C@H](C)NC(=O)[C@H](CC(C)C)N(C)C(=O)[C@H](C(C)C)NC(=O)[C@H]([C@@H](C)OCCCCN2CCOCC2)N(C)C(=O)[C@@H](C)N(C)C1=O` [Example 70] (cyclo(A[dA][NMeL][NMeL][NMeV][X3][Abu][dNMeA][NMeT](Butyl(4-morpholino))V[NMeL])) was run?
The EC50 was 10 to 100 nM.

With `CC[C@@H]1NC(=O)[C@H]([C@H](O)[C@H](C)CCCCNC(=O)OC)N(C)C(=O)[C@H](C(C)C)N(C)C(=O)[C@H](CC(C)C)N(C)C(=O)[C@H](CC(C)C)N(C)C(=O)[C@@H](C)NC(=O)[C@H](C)NC(=O)[C@H](CC(C)C)N(C)C(=O)[C@H](C(C)C)NC(=O)[C@H]([C@@H](C)OCCCCN2CCOCC2)N(C)C(=O)[C@@H](C)N(C)C1=O` [Example 71] (cyclo(A[dA][NMeL][NMeL][NMeV][X1][Abu][dNMeA][NMeT](Butyl(4-morpholino))V[NMeL])) as the molecule, how does the EC50 read?
The EC50 was 10 to 100 nM.

Which EC50 does the source give for `CC[C@@H]1NC(=O)[C@H]([C@H](O)[C@H](C)CCCCN)N(C)C(=O)[C@H](C(C)C)N(C)C(=O)[C@H](CC(C)C)N(C)C(=O)[C@H](CC(C)C)N(C)C(=O)[C@@H](C)NC(=O)[C@H](C)NC(=O)[C@H](CC(C)C)N(C)C(=O)[C@H](C(C)C)NC(=O)[C@H]([C@@H](C)OCCCCN2CCOCC2)N(C)C(=O)[C@@H](C)N(C)C1=O` [Example 69] (cyclo(A[dA][NMeL][NMeL][NMeV][X6][Abu][dNMeA][NMeT](Butyl(4-morpholino))V[NMeL])) here?
Its EC50 is 100 to 1000 nM.

Which EC50 does the source give for `CCOC(=O)OCCCC[C@@H](C)[C@@H](O)[C@H]1C(=O)N[C@@H](CC)C(=O)N(C)[C@H](C)C(=O)N(C)[C@@H]([C@@H](C)OCCCCN2CCOCC2)C(=O)N[C@@H](C(C)C)C(=O)N(C)[C@@H](CC(C)C)C(=O)N[C@@H](C)C(=O)N[C@H](C)C(=O)N(C)[C@@H](CC(C)C)C(=O)N(C)[C@@H](CC(C)C)C(=O)N(C)[C@@H](C(C)C)C(=O)N1C` [Example 64] (cyclo(A[dA][NMeL][NMeL][NMeV][X8][Abu][dNMeA][NMeT](Butyl(4-morpholino))V[NMeL])) here?
Its EC50 is 10 to 100 nM.

With `CCOC(=O)NCCCC[C@@H](C)[C@@H](O)[C@H]1C(=O)N[C@@H](CC)C(=O)N(C)[C@H](C)C(=O)N(C)[C@@H]([C@@H](C)OCCCCN2CCOCC2)C(=O)N[C@@H](C(C)C)C(=O)N(C)[C@@H](CC(C)C)C(=O)N[C@@H](C)C(=O)N[C@H](C)C(=O)N(C)[C@@H](CC(C)C)C(=O)N(C)[C@@H](CC(C)C)C(=O)N(C)[C@@H](C(C)C)C(=O)N1C` [Example 72] (cyclo(A[dA][NMeL][NMeL][NMeV][X7][Abu][dNMeA][NMeT](Butyl(4-morpholino))V[NMeL])) as the molecule, how does the EC50 read?
Its EC50 is 10 to 100 nM.

Which EC50 does the source give for `CCCC[C@@H](C)[C@@H](O)[C@H]1C(=O)N[C@@H](CC)C(=O)N(C)[C@H](C)C(=O)N(C)[C@@H]([C@@H](C)OCCCCN2CCOCC2)C(=O)N[C@@H](C(C)C)C(=O)N(C)[C@@H](CC(C)C)C(=O)N[C@@H](C)C(=O)N[C@H](C)C(=O)N(C)[C@@H](CC(C)C)C(=O)N(C)[C@@H](CC(C)C)C(=O)N(C)[C@@H](C(C)C)C(=O)N1C` [Example 7] (cyclo(A[dA][NMeL][NMeL][NMeV][NMe(dihydroBmt)][Abu][dNMeA][NMeT](Butyl(4-morpholino))V[NMeL])) here?
The EC50 was 10 to 100 nM.

`CC[C@@H]1NC(=O)[C@H]([C@H](O)[C@H](C)CCCCOC(=O)N(C)C)N(C)C(=O)[C@H](C(C)C)N(C)C(=O)[C@H](CC(C)C)N(C)C(=O)[C@H](CC(C)C)N(C)C(=O)[C@@H](C)NC(=O)[C@H](C)NC(=O)[C@H](CC(C)C)N(C)C(=O)[C@H](C(C)C)NC(=O)[C@H]([C@@H](C)OCCCCN2CCOCC2)N(C)C(=O)[C@@H](C)N(C)C1=O` [Example 65] (cyclo(A[dA][NMeL][NMeL][NMeV][X5][Abu][dNMeA][NMeT](Butyl(4-morpholino))V[NMeL])) was tested. Which EC50 did it give?
Its EC50 is 10 to 100 nM.

`CC[C@@H]1NC(=O)[C@H]([C@H](O)[C@H](C)CCOC(=O)NC2CC2)N(C)C(=O)[C@H](C(C)C)N(C)C(=O)[C@H](CC(C)C)N(C)C(=O)[C@H](CC(C)C)N(C)C(=O)[C@@H](C)NC(=O)[C@H](C)NC(=O)[C@H](CC(C)C)N(C)C(=O)[C@H](C(C)C)NC(=O)[C@H]([C@@H](C)OCCCCN2CCOCC2)N(C)C(=O)[C@@H](C)N(C)C1=O` [Example 6] (cyclo(A[dA][NMeL][NMeL][NMeV][X10][Abu][dNMeA][NMeT](Butyl(4-morpholino))V[NMeL])) was tested. Which EC50 did it give?
Its EC50 is > 1000 nM.

For `CC[C@@H]1NC(=O)[C@H]([C@H](O)[C@H](C)CCCCN=[N+]=[N-])N(C)C(=O)[C@H](C(C)C)N(C)C(=O)[C@H](CC(C)C)N(C)C(=O)[C@H](CC(C)C)N(C)C(=O)[C@@H](C)NC(=O)[C@H](C)NC(=O)[C@H](CC(C)C)N(C)C(=O)[C@H](C(C)C)NC(=O)[C@H]([C@@H](C)OCCCCN2CCOCC2)N(C)C(=O)[C@@H](C)N(C)C1=O` [Example 68] (cyclo(A[dA][NMeL][NMeL][NMeV][X9][Abu][dNMeA][NMeT](Butyl(4-morpholino))V[NMeL])), which EC50 is on record?
Its EC50 is 10 to 100 nM.

For `CC[C@@H]1NC(=O)[C@H]([C@H](O)[C@H](C)CCCCOC(=O)N(C)OC)N(C)C(=O)[C@H](C(C)C)N(C)C(=O)[C@H](CC(C)C)N(C)C(=O)[C@H](CC(C)C)N(C)C(=O)[C@@H](C)NC(=O)[C@H](C)NC(=O)[C@H](CC(C)C)N(C)C(=O)[C@H](C(C)C)NC(=O)[C@H]([C@@H](C)OCCCCN2CCOCC2)N(C)C(=O)[C@@H](C)N(C)C1=O` [Example 66] (cyclo(A[dA][NMeL][NMeL][NMeV][X2][Abu][dNMeA][NMeT](Butyl(4-morpholino))V[NMeL])), which EC50 is on record?
Its EC50 is 10 to 100 nM.

For `CC[C@@H]1NC(=O)[C@H]([C@H](O)[C@H](C)CCCCOC(=O)OC)N(C)C(=O)[C@H](C(C)C)N(C)C(=O)[C@H](CC(C)C)N(C)C(=O)[C@H](CC(C)C)N(C)C(=O)[C@@H](C)NC(=O)[C@H](C)NC(=O)[C@H](CC(C)C)N(C)C(=O)[C@H](C(C)C)NC(=O)[C@H]([C@@H](C)OCCCCN2CCOCC2)N(C)C(=O)[C@@H](C)N(C)C1=O` [Example 63] (cyclo(A[dA][NMeL][NMeL][NMeV][X4][Abu][dNMeA][NMeT](Butyl(4-morpholino))V[NMeL])), which EC50 is on record?
The EC50 was 10 to 100 nM.

Source: patent US9616099B2, “Cyclosporin analogues for preventing or treating hepatitis C infection” (Enanta Pharmaceuticals, Inc., priority 2013, dated 2017)
